Results: paper PMC5298233, “Substrate-analogous inhibitors exert antimalarial action by targeting the Plasmodium lactate transporter PfFNT at nanomolar scale” (PLoS Pathogens, 2017)

Target: PfFNT G107S (Plasmodium falciparum, UniProt O77389, G107S)
Test: cell-based
Conditions: for IC50: read-out: IC50 (PfFNT G107S / yeast)

Compound	IC50 [µM]	relative efficiency in blocking PfFNT G107S (mutant versus wildtype) (compared with BH-296)
COc1ccc(C(=O)/C=C(\O)C(F)(F)C(F)(F)F)cc1 [BH-296]	2.3	
COc1ccc2c(c1)OC(O)(C(F)(F)C(F)(F)F)CC2=O (stereo not shown) [MMV007839]	21	
CC(=O)C=C(O)C(F)(F)C(F)(F)F [Pharmacophore, 5,5,6,6,6-pentafluoro-4-hydroxyhex-3-en-2-one]	8.1	four times better relative efficiency than BH-296
